{"source": "patent US20120208781A1", "about": "“AMINOGLYCOSIDE DOSING REGIMENS” (Achaogen, Inc., priority 2009, published 2012)", "key": {"[1]": {"test": "Urine concentration analysis / urinary recovery of Compound 1 in beagle dogs", "type": "in vivo", "conditions": "10 mg/kg IV; for % of Cmpd 1 recovered in urine: 24 hours; for concentration at 6 h / concentration at 12 h / concentration at 24 h: male, beagle, dog, urine, iv, read-out: Cmpd 1 urine concentration", "procedure": "Male CD-1 mice, Sprague Dawley rats, and beagle dogs were administered Compound 1 intravenously. Compound 1 was preformulated as a sterile isotonic solution of 10 mg/mL in PBS. Specifically, male CD-1 mice were administered a single bolus IV injection of the Compound at 10 mg/kg, via a bolus IV injection into the tail vein. Two blood samples per mouse were collected by retro-orbital puncture into tubes containing the anticoagulant K2EDTA prior to dosing and at 0.033, 0.083, 0.25, 0.5, 1 and 24 hours. Rats were administered Compound 1 at 10 mg/kg via a bolus IV injection into the tail vein. Twelve blood samples per rat were collected via a jugular vein cannula into tubes containing the anticoagulant K2EDTA at various timepoints (i.e., 0.033, 0.083, 0.25, 0.5, 1, 2, 4, 6, 8, 10, 12, and 24 hours). Male beagle dogs were administered Compound 1 at 10 mg/kg through a temporary percutaneous catheter placed in a peripheral vein. Whole blood samples (0.5 mL) were collected from each dog prior to dosing and at 0.033, 0.083, 0.25, 0.5, 1, 2, 4, 6, 8, and 24 hours via direct venipuncture of a jugular or cephalic vein into tubes containing the anticoagulant K2EDTA. A sparse sampling method was employed to conserve animals and provide the best data possible from fewer mice. Samples were centrifuged, and plasma was collected and transferred into a new tube and frozen at −80° C. until they were analyzed.\nBlood, urine, and kidney samples collected over 24 hours were analyzed for Compound 1 levels using LC-MS/MS. Method performance was acceptable in the concentration ranges necessary to determine plasma levels. Compound 1 plasma concentrations were determined by comparing Compound 1 concentration in the sample to a standard curve derived from LC-MS/MS measurements of the analyte. The standard curve fit was linear with a 1/x^2 weighting."}, "Acinetobacter spp. (ACB)": {"tested_on": "Acinetobacter spp. (ACB)", "test": "MIC, CLSI broth microdilution, worldwide isolates: Acinetobacter spp.", "type": "cell-based", "text": "In the first study, a total of 235 isolates were collected from medical centers worldwide and tested for susceptibility to Compound 1 and comparator agents by CLSI broth microdilution methods. […] Non-ENT GN pathogens included WT P. aeruginosa (PSA) and Acinetobacter spp. (ACB), and carbapenem (CARB)-R strains, including those with MBL and OXA enzymes, SA and coagulase-negative staphylococci (CoNS) included oxacillin-susceptible (MSSA/MS-CoNS) and —R (MRSA/MR-CoNS) strains.\nMinimum inhibitory concentrations (MIC) were determined by reference Clinical and Laboratory Standards Institute (CLSI) broth microdilution methods per M7-A7 [2006]. Briefly, serial two-fold dilutions of Compound 1 and comparator AGs (together, “the test compounds”) were prepared at 2× concentration in appropriate diluent. The dilutions were mixed in 96-well assay plates with bacterial inoculum. Bacteria were suspended in sterile saline and added to each assay plate to obtain a final concentration of 5.5×10^5 CFU/mL. The plates were incubated at 35° C. for 20 hours in ambient air. […] After incubation, assay plates were read using a microtiter plate reader at 600 nm."}, "[2]": {"tested_on": "glomerular filtration rate", "test": "First-in-human phase 1 study: renal function (BUN, Cr, iothalamate GFR)", "type": "in vivo", "conditions": "healthy volunteers", "procedure": "Safety evaluation was based on clinical observations, vital sign measurements, laboratory tests, physical examination, electrocardiogram, cochlear function, vestibular function testing, and reported adverse events. Cochlear function was evaluated by pure tone audiometry with bone conduction and otoacoustic emission (OAE) testing. Vestibular function was evaluated by electronystagmography (ENG) and Dynamic Visual Acuity (DVA) test. Laboratory tests included complete blood count (CBC), serum chemistries, and urinalysis. BUN and creatinine (Cr) were assessed daily on dosing days to allow the Investigator to monitor renal function. Results were used as criteria for dose escalation. The glomerular filtration rate (GFR) was estimated using iothalamate plasma measurements before dosing and after the multiple dose periods. GFR was also assessed by Cr clearance before dosing and after the multiple dose periods.\nIothalamate was infused the day prior to the single-dose and prior to the first multiple-dose and the day after the last multiple-dose. Blood samples for iothalamate analysis for GFR calculation were obtained prior to the start of the iothalamate infusion and the following hours after the start of the infusion: 1, 2, 4, and 8."}, "cochlear hair cells": {"tested_on": "cochlear hair cells", "test": "Cytocochleogram analysis in 28-day guinea pig ototoxicity model", "type": "in vivo, guinea pigs", "procedure": "Following euthanasia and whole body intravascular perfusion with 4% paraformaldehyde, the temporal bones of the left and right ears were removed. Gross middle ear assessments were performed using a dissecting microscope. […] Following gross middle ear assessment, the cochleas of the left ear were fixed by intrascalar perfusion with 4% paraformaldehyde. Cochlea tissues of both ears were placed in 4% paraformaldehyde for approximately 1 hour. Tissues were then transferred to 0.5% paraformaldehyde, stored refrigerated, and shipped on gel packs to the Kresge Hearing Research Institute, Ann Arbor, Mich., for further processing and cytocochleogram analysis.\nThese guinea pig ototoxicity studies also included microscopic analysis of surgically dissected cochleas from each animal to assess hair cell damage (cytocochleograms). The underlying cause of aminoglycoside related hearing loss is damage to the hair cells of the auditory system after significant accumulation of aminoglycosides in the inner ear. In the cochlea, drug-induced hair cell loss typically progresses from the basal to the apical turns of the cochlea. Perception of high-frequency sounds, a function of the basal hair cells, is lost first; perception of low-frequency sounds, a function of the more apical hair cells, is the last to be lost (Selimoglu, E., Curr Pharm Des. 2007; 13(1):119-26). For obvious reasons, it is impractical to obtain cytocochleograms from each animal prior to dosing, and some hair cell loss is usually observed in control (vehicle dosed) animals in these guinea pig studies. This variability makes it difficult to determine whether hair cell loss observed post-treatment is due to the drug treatment, especially mild hair cell loss, […]"}}, "note": "Several values for one entry are separate records, joined by “and”; a condition that tells them apart may be missing. Equal values may be shown once. Read-outs that look alike come from different tables or passages of the source.", "data": [{"smiles": "CN[C@@H]1[C@@H](O)[C@@H](O[C@@H]2[C@@H](O)[C@H](O[C@H]3OC(CNCCO)=CC[C@H]3N)[C@@H](N)C[C@H]2NC(=O)[C@@H](O)CCN)OC[C@]1(C)O", "note": "[Compound 1, 6′-(2-Hydroxy-ethyl)-1-(4-amino-2(S)-hydroxy-butyryl)-sisomicin]", "values": [{"measurement": "% of Cmpd 1 recovered in urine", "setting": "[1]; Dog 6001", "result": 134, "unit": "%"}, {"measurement": "% of Cmpd 1 recovered in urine", "setting": "[1]; Dog 6002", "result": 135, "unit": "%"}, {"measurement": "% of Cmpd 1 recovered in urine", "setting": "[1]; Dog 6003", "result": 87, "unit": "%"}, {"measurement": "% of Cmpd 1 recovered in urine", "setting": "[1]; Mean (±SD), 10 mg/kg", "result": "119% and 119 ± 22%"}, {"measurement": "Cmpd 1 urine concentration", "setting": "[1]; Dog 6001, Total", "result": 1070, "unit": "µg/mL"}, {"measurement": "Cmpd 1 urine concentration", "setting": "[1]; Dog 6002, Total", "result": 573, "unit": "µg/mL"}, {"measurement": "Cmpd 1 urine concentration", "setting": "[1]; Dog 6003, 6 hr", "result": 1180, "unit": "µg/mL"}, {"measurement": "Cmpd 1 urine concentration", "setting": "[1]; Dog 6003, Total", "result": 1324, "unit": "µg/mL"}, {"measurement": "concentration at 6 h", "setting": "[1]; 10 mg/kg, Dog 6001, 6 hr", "result": 1000, "unit": "µg/mL"}, {"measurement": "concentration at 12 h", "setting": "[1]; 10 mg/kg, Dog 6001, 12 hr", "result": 47, "unit": "µg/mL"}, {"measurement": "concentration at 24 h", "setting": "[1]; 10 mg/kg, Dog 6001, 24 hr", "result": 24, "unit": "µg/mL"}, {"measurement": "concentration at 6 h", "setting": "[1]; 10 mg/kg, Dog 6002, 6 hr", "result": 505, "unit": "µg/mL"}, {"measurement": "concentration at 24 h", "setting": "[1]; 10 mg/kg, Dog 6002, 24 hr", "result": 68, "unit": "µg/mL"}, {"measurement": "concentration at 12 h", "setting": "[1]; 10 mg/kg, Dog 6003, 12 hr", "result": 100, "unit": "µg/mL"}, {"measurement": "concentration at 24 h", "setting": "[1]; 10 mg/kg, Dog 6003, 24 hr", "result": 44, "unit": "µg/mL"}, {"measurement": "Cumulative % inhibited at Cmpd. MIC 1", "setting": "Acinetobacter spp. (ACB); ACB (30)", "result": 10.0, "unit": "%"}, {"measurement": "Cumulative % inhibited at Cmpd. MIC 2", "setting": "Acinetobacter spp. (ACB); ACB (30)", "result": 23.3, "unit": "%"}, {"measurement": "Cumulative % inhibited at Cmpd. MIC 4", "setting": "Acinetobacter spp. (ACB); ACB (30)", "result": 26.7, "unit": "%"}, {"measurement": "Cumulative % inhibited at Cmpd. MIC 8", "setting": "Acinetobacter spp. (ACB); ACB (30)", "result": 66.7, "unit": "%"}, {"measurement": "Cumulative % inhibited at Cmpd. MIC 16", "setting": "Acinetobacter spp. (ACB); ACB (30)", "result": 70.0, "unit": "%"}, {"measurement": "Cumulative % inhibited at Cmpd. MIC 32", "setting": "Acinetobacter spp. (ACB); ACB (30)", "result": 90.0, "unit": "%"}, {"measurement": "Cumulative % inhibited at Cmpd. MIC 64", "setting": "Acinetobacter spp. (ACB); ACB (30)", "result": 100.0, "unit": "%"}, {"measurement": "Cumulative % inhibited at Cmpd. MIC ≦0.5", "setting": "Acinetobacter spp. (ACB); ACB (30)", "result": 3.3, "unit": "%"}, {"measurement": "Cumulative % inhibited at Cmpd. MIC 1", "setting": "Acinetobacter spp. (ACB); ACB, CARB-R (20)", "result": 15.0, "unit": "%"}, {"measurement": "Cumulative % inhibited at Cmpd. MIC 2", "setting": "Acinetobacter spp. (ACB); ACB, CARB-R (20)", "result": 30.0, "unit": "%"}, {"measurement": "Cumulative % inhibited at Cmpd. MIC 4", "setting": "Acinetobacter spp. (ACB); ACB, CARB-R (20)", "result": 30.0, "unit": "%"}, {"measurement": "Cumulative % inhibited at Cmpd. MIC 8", "setting": "Acinetobacter spp. (ACB); ACB, CARB-R (20)", "result": 70.0, "unit": "%"}, {"measurement": "Cumulative % inhibited at Cmpd. MIC 16", "setting": "Acinetobacter spp. (ACB); ACB, CARB-R (20)", "result": 75.0, "unit": "%"}, {"measurement": "Cumulative % inhibited at Cmpd. MIC 32", "setting": "Acinetobacter spp. (ACB); ACB, CARB-R (20)", "result": 95.0, "unit": "%"}, {"measurement": "Cumulative % inhibited at Cmpd. MIC 64", "setting": "Acinetobacter spp. (ACB); ACB, CARB-R (20)", "result": 100.0, "unit": "%"}, {"measurement": "Cumulative % inhibited at Cmpd. MIC ≦0.5", "setting": "Acinetobacter spp. (ACB); ACB, CARB-R (20)", "result": 5.0, "unit": "%"}, {"measurement": "Cumulative % inhibited at Cmpd. MIC 1", "setting": "Acinetobacter spp. (ACB); ACB, WT (10)", "result": 0.0, "unit": "%"}, {"measurement": "Cumulative % inhibited at Cmpd. MIC 2", "setting": "Acinetobacter spp. (ACB); ACB, WT (10)", "result": 10.0, "unit": "%"}, {"measurement": "Cumulative % inhibited at Cmpd. MIC 4", "setting": "Acinetobacter spp. (ACB); ACB, WT (10)", "result": 20.0, "unit": "%"}, {"measurement": "Cumulative % inhibited at Cmpd. MIC 8", "setting": "Acinetobacter spp. (ACB); ACB, WT (10)", "result": 60.0, "unit": "%"}, {"measurement": "Cumulative % inhibited at Cmpd. MIC 16", "setting": "Acinetobacter spp. (ACB); ACB, WT (10)", "result": 60.0, "unit": "%"}, {"measurement": "Cumulative % inhibited at Cmpd. MIC 32", "setting": "Acinetobacter spp. (ACB); ACB, WT (10)", "result": 80.0, "unit": "%"}, {"measurement": "Cumulative % inhibited at Cmpd. MIC 64", "setting": "Acinetobacter spp. (ACB); ACB, WT (10)", "result": 100.0, "unit": "%"}, {"measurement": "Cumulative % inhibited at Cmpd. MIC ≦0.5", "setting": "Acinetobacter spp. (ACB); ACB, WT (10)", "result": 0.0, "unit": "%"}, {"measurement": "MIC50", "setting": "Acinetobacter spp. (ACB); Acinetobacter, ACB isolates", "result": 8, "unit": "µg/mL"}, {"measurement": "MIC90", "setting": "Acinetobacter spp. (ACB); Acinetobacter, ACB isolates", "result": 32, "unit": "µg/mL"}, {"measurement": "iothalamate plasma measurements (GFR)", "setting": "[2]", "result": "did not change"}, {"measurement": "animals with a few spikes of minimal hair cell loss", "setting": "cochlear hair cells; guinea pigs, 8 mg/kg", "result": "2/8"}, {"measurement": "animals with minimal to moderate outer hair cell loss at the apical end or middle region", "setting": "cochlear hair cells; guinea pigs, 30 mg/kg", "result": "3/8"}, {"measurement": "animals with large loss of outer hair cells across the length of the cochlea", "setting": "cochlear hair cells; guinea pigs, 80 mg/kg", "result": "One of 8"}, {"measurement": "animals with minimal loss of both inner and outer hair cells at the mid-cochlea or apical end", "setting": "cochlear hair cells; guinea pigs, 80 mg/kg", "result": "2/8"}, {"measurement": "dose-response of hair cell loss", "setting": "cochlear hair cells; guinea pigs, 8, 30, 80 mg/kg", "result": "no dose-response of hair cell loss"}]}]}
